“And” between values parts separate entries of the source, which are not always exact repeats. Equal entries are not always repeated. “Also recorded” adds a separate entry of the source.
Experiments:
CDK2/Cyclin E (CDK2/E) = CDK2/Cyclin E (CDK2/E) (Homo sapiens, UniProt P24941); test: Caliper microfluidic kinase assay (Nanosyn); type: biochemical
Experimental: Kinase phosphorylation assays were performed using a caliper technology microfluidics platform (Caliper Assay Platform). With this system, the target enzyme is incubated with fluorescently labeled substrate and test compounds in a standardized reaction mixture in 384 well plates. Upon termination of the reaction, samples are introduced onto microfluidic chips. The samples migrate through channels in the chips and product and substrate are separated based on the difference in their charge and mass (electrophoretic mobility shift). Enzyme activity is measured by direct comparison of the fluorescence in the product and substrate peaks.
Protein kinase activity was measured against multiple CDKs and their binding partners: CDK1/Cyclin B (CDK1/B), CDK2/Cyclin A (CDK2/A), and CDK2/Cyclin E (CDK2/E), CDK3/Cyclin E (CDK3/E), CDK4/Cyclin D1 (CDK4/D1), CDK6/Cyclin D3 (CDK6/D3), CDK5/p35 (CDK5/p35), CDK7/Cyclin H (CDK7/H), CDK9/Cyclin T1 (CDK9/T). Test compounds were diluted in 100% DMSO using 3-fold dilution steps. […] Compounds were tested in a single well for each dilution, and the final concentration of DMSO in all assays was kept at 1%.

pRb in Kuramochi cells = test: Western blot pRb; type: cell-based, human; conditions: 30-1000 nM, 24 hours
Experimental: An independent human ovarian carcinoma cell line, Kuramochi human ovarian carcinoma, was grown in RPMI-1640/1× Glutamax/10% fetal bovine serum and was plated at 300,000 cells/well in Corning 6 well tissue culture treated plates. Cells were incubated at 37° C. for 24 hours prior to addition of 2 replicates of 0.1% DMSO control and 1 replicate for each treatment. […] Cells were collected by washing each well twice with cold PBS, then scraping cells in the presence of 150 μL cold RIPA with protease and phosphatase inhibitors. Lysates were clarified by centrifugation at 14 kxg for 10 min at 4° C. and supernatants transferred to clean tubes. A BCA assay was performed to determine the protein concentration of each lysate. 30 μg of protein was mixed with sample buffer and reducing agent before being run on a 4-12% SDS-PAGE. Protein was transferred to a nitrocellulose membrane and blocked with LI-COR blocking buffer for 1 hour. Membranes were incubated overnight in primary antibody at 4° C. Following 3 washes with TBST, membranes were incubated for 45 minutes in LI-COR secondary antibodies. Following 2 washes in TBST, and one TBS wash, membranes were scanned using a LI-COR OdysseyCLx. Image studio was used for image analysis.

[1] = biological target: bile salt export pump (BSEP) (Homo sapiens, UniProt O95342); test: Transporter inhibition; type: in vitro ADME
Sequence of bile salt export pump (BSEP) (O95342 whole entry): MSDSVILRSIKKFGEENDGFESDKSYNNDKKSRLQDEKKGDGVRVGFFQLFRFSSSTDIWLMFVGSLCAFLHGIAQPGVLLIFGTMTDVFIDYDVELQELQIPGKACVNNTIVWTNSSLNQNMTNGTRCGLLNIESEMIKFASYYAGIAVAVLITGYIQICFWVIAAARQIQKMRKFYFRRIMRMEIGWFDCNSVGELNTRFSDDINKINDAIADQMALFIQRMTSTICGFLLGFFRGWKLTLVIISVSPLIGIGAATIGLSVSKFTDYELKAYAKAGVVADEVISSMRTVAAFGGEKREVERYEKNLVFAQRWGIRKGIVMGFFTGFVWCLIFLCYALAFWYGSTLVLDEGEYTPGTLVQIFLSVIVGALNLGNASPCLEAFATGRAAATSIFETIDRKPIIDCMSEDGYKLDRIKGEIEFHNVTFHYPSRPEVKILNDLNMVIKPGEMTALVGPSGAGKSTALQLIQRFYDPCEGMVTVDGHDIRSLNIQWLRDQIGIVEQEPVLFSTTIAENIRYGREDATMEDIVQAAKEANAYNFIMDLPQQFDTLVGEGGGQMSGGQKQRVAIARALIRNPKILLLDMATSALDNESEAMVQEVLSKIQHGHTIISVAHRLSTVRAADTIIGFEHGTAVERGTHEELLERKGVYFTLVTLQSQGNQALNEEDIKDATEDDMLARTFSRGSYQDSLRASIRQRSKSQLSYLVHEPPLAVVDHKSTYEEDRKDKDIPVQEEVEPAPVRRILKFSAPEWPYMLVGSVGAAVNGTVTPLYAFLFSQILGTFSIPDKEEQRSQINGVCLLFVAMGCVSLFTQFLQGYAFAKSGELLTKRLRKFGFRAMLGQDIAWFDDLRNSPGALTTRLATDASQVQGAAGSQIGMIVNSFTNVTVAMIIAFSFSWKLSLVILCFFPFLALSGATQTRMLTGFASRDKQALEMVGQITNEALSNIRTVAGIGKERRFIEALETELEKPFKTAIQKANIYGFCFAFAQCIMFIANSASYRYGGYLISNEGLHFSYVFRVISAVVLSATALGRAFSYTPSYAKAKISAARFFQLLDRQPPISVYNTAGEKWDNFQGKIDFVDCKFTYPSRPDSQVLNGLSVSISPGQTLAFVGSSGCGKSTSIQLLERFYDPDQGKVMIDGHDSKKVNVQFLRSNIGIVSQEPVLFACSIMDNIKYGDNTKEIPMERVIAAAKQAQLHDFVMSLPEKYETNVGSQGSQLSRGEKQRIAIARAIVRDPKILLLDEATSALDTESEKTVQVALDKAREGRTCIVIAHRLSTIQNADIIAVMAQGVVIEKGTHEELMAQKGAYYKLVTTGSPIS

[2] = GLP 28-day oral toxicity and toxicokinetics study; type: in vivo, Beagle dogs; conditions: for AUC0-24 / AUC(0-t) / Cmax / Tmax: Beagle, po
Experimental: Nominal dose values and sampling times were used for calculations. Any concentration reported as BLQ (LLOQ<1.0 ng/mL) was set equal to zero. Toxicokinetic analyses included Cmax, Tmax, AUC0-24, t1/2, RA Cmax, and RA AUC0-24. Forty (20 per sex) Beagle dogs were randomly assigned to groups and dosed twice daily (approximately 8 hours+1-hour apart) via oral gavage for 28 consecutive days.
Based on the absence of dose-limiting toxicity, the 28-day highest nonseverely toxic dose (HNSTD) was 250 mg/kg BID (500 mg/kg/day).

[3] = tested on: OVCAR3 human ovary carcinoma CDX; test: OVCAR3 cell line-derived xenograft (tumor volume, body weight, tumor Western blot); type: in vivo, mice
Experimental: 10 million OVCAR3 human ovary carcinoma cells were injected into athymic nude female mice. The study was initiated at a mean tumor volume of approximately 100-200 mm^3. […] The test agents were delivered at 5 mL/kg by oral gavage.
Tumors from FIG. 146A were harvested at the end of study and snap frozen. A small piece of each tumor was removed while frozen and lysed with 150 μL cold RIPA with protease and phosphatase inhibitors while being homogenized with mortar and pestle. Lysates were clarified by centrifugation at 14 kxg for 10 min at 4° C. and supernatants transferred to clean tubes. A BCA assay was performed to determine the protein concentration of each lysate. 30 μg of protein was mixed with sample buffer and reducing agent before being run on a 4-12% SDS-PAGE. Protein was transferred to a nitrocellulose membrane and blocked with LI-COR blocking buffer for 1 hour. Membranes were incubated overnight in primary antibody at 4° C. Following 3 washes with TBST, membranes were incubated for 45 minutes in LI-COR secondary antibodies. Following 2 washes in TBST, and one TBS wash, membranes were scanned using a LI-COR OdysseyCLx. Image studio was used for image analysis.

[4] = tested on: T47D parental and therapy-resistant cells; test: Cell cycle by BrdU flow cytometry in therapy-resistant cells; type: cell-based, human; conditions: Compound I with abemaciclib (LYR) or abemaciclib and fulvestrant (LYFR), 7 days
Experimental: The therapy resistant cells were previously incubated with abemaciclib, fulvestrant, and/or palbociclib for prolonged periods to the point of developing drug resistance. Cells were plated in Corning 6 well tissue culture treated plates. Cells were treated for 7 days. Media was spiked with 10 μM BrdU prior to collection. Cells were washed in PBS, trypsinized, collected and centrifuged at 300 RCF for 5 mins. Cells were resuspended in cell culture media and transferred into a 96 well V-bottom plate with roughly 300,000 cells per well. Cells were then stained using the Near-IR Fixable Viability Stain (Invitrogen Cat. L34976) for 20 mins at room temperature, protected from light. Cells were fixed and permeabilized using eBioscience FoxP3/Transcription Factor Staining Buffer Set (Cat. 00-5523-00). DNA was denatured using 2N HCl+0.5% (v/v) Triton X-100 for 30 mins room temperature, agitating every 5-10 mins. The acid was neutralized using 0.1M Na2B4O7·10H2O (pH 8.5) followed by 0.5% BSA in PBS. Cells were then stained with BrdU antibody (Clone 3D4, BioLegend Cat. 364118) for 1 hour at room temperature. Prior to acquisition on the BD A3 Symphony, DNA was stained for 30 minutes using FxCycle Violet ReadyFlow Reagent.
Cell staining was then conducted to monitor cellular proliferation and perform cell cycle analysis of these therapy-resistant cells. […] Similarly, abemaciclib- and fulvestrant-resistant (LYFR) cells administered abemaciclib and fulvestrant were not substantially arrested in the G1 phase (FIG. 147H).

[5] = female, dog, in vivo, 20 mg/kg/day
[6] = female, dog, in vivo, 100 mg/kg/day
[7] = female, dog, in vivo, 500 mg/kg/day
[8] = male, dog, in vivo, 100 mg/kg/day
[9] = male, dog, in vivo, 500 mg/kg/day

In the case of `NS(=O)(=O)c1ccc(Nc2ncc3cc4n(c3n2)C2(CCCCC2)C(=O)NN4)cc1` [Compound I], the IC50 (CDK2/Cyclin E (CDK2/E); 12-point dose-response, 1 μM to 0.0056 nM, read-out: IC50 against CDK2/E) is reported as 600 pM and 560 pM, the “inhibition compared with other CDK/cyclin combinations” value (CDK2/Cyclin E (CDK2/E); FIG. 1A panel) is reported as “greatest inhibition of CDK2/E and CDK2/A” and the pRb levels (pRb in Kuramochi cells) is reported as “decreases pRb levels in a dose-dependent manner”. The BSEP inhibition [1] was “did not inhibit”, the tolerability ([2]; PO, up to 28 days, up to 250 mg/kg BID) was “generally well tolerated; also recorded: well tolerated with no dose-limiting toxicities observed” and the “28-day NOAEL” value ([2]; dog, in vivo) was “did not identify a 28-day NOAEL”. For the same molecule, the “accumulation after 28 days of BID dosing” value ([2]; dog, in vivo) was “Modest accumulation”, the bone marrow cellularity ([2]; dog, in vivo) was “moderately decreased bone marrow cellularity” and the AUC0-24 [2, 5] was 1680 ng·h/mL. For the same molecule, the AUC(0-t) ([2]; female, dog, in vivo, 20 mg/kg/day, AUC0-24) was 2600 ng·h/mL, the Cmax ([2]; female, dog, in vivo, 20 mg/kg/day, Cmax) was 267 ng/mL and the Tmax [2, 5] was 8.8 h. The AUC0-24 [2, 6] was 5170 ng·h/mL, the AUC(0-t) ([2]; female, dog, in vivo, 100 mg/kg/day, AUC0-24) was 9160 ng·h/mL and the Cmax ([2]; female, dog, in vivo, 100 mg/kg/day, Cmax) was 725 ng/mL. It also gave a Tmax [2, 6] of 10 h, an AUC(0-t) ([2]; female, dog, in vivo, 250 mg/kg, plasma AUC0-24) of 11700 ng·h/mL and a Cmax ([2]; female, dog, in vivo, 250 mg/kg, plasma Cmax) of 961 ng/mL. The AUC0-24 [2, 7] was 11700 ng·h/mL, the AUC(0-t) ([2]; female, dog, in vivo, 500 mg/kg/day, AUC0-24) was 10100 ng·h/mL and the Cmax ([2]; female, dog, in vivo, 500 mg/kg/day, Cmax) was 919 ng/mL. It also gave a Tmax [2, 7] of 14 h, an AUC(0-t) ([2]; female, dog, in vivo, plasma AUC0-24) of 2600 ng·h/mL and a Cmax ([2]; female, dog, in vivo, plasma Cmax) of 267 ng/mL. The AUC0-24 ([2]; male, dog, in vivo, 20 mg/kg/day) was 1430 ng·h/mL, the AUC(0-t) ([2]; male, dog, in vivo, 20 mg/kg/day, AUC0-24) was 2460 ng·h/mL and the AUC0-24 [2, 8] was 10600 ng·h/mL. For the same molecule, the AUC(0-t) ([2]; male, dog, in vivo, 100 mg/kg/day, AUC0-24) was 6210 ng·h/mL, the Cmax ([2]; male, dog, in vivo, 100 mg/kg/day, Cmax) was 459 ng/mL and the Tmax [2, 8] was 12 h. For the same molecule, the AUC(0-t) ([2]; male, dog, in vivo, 250 mg/kg, plasma AUC0-24) was 18800 ng·h/mL, the Cmax ([2]; male, dog, in vivo, 250 mg/kg, plasma Cmax) was 1500 ng/mL and the AUC0-24 [2, 9] was 18800 ng·h/mL. It also gave an AUC(0-t) ([2]; male, dog, in vivo, 500 mg/kg/day, AUC0-24) of 13300 ng·h/mL, a Cmax ([2]; male, dog, in vivo, 500 mg/kg/day, Cmax) of 1220 ng/mL and a Tmax [2, 9] of 14 h. For the same molecule, the AUC(0-t) ([2]; male, dog, in vivo, plasma AUC0-24) was 2460 ng·h/mL, the Cmax ([2]; male, dog, in vivo, plasma Cmax) was 307 ng/mL and the tumor outcome ([3]; 100 mg/kg BID, 42 days) was “tumor stasis”. For the same molecule, the TGI ([3]; 200 mg/kg QD, 42 days) was 89%, the tumor outcome ([3]; 100 mpk BID and 200 mpk QD, out to 42 days) was “durable tumor stasis or regression” and the “Rb1 phosphorylation and cyclin A2 levels in ex vivo tumor samples” value ([3]; 100 mpk BID, at least 24 hours post-final dose) was “substantially reduces Rb1 phosphorylation and cyclin A2 levels”. For the same molecule, the body weight loss ([3]; at any point) was no more than 5% and the “cell cycle arrest of therapy-resistant cells” value [4] was “arrested in G1; also recorded: arrested therapy-resistant LYR cells”.

From patent publication US20250199015A1, “CYCLIN-DEPENDENT KINASE 2 INHIBITORS FOR MEDICAL TREATMENT” (INCYCLIX BIO, LLC, priority 2022, published 2025)
